We go through 35 compounds from patent publication US10399991B2, “Kv1.3 inhibitors and their medical applications” (4SC AG, priority 2015, dated 2019).

The pIC50 is −log10 of the IC50, conventionally taken in molar units. A low value points to a large IC50.

Each structure is given as a SMILES string. pIC50: −log10 of the molar value.

Sequence of Kv1.3 (P22001 whole entry): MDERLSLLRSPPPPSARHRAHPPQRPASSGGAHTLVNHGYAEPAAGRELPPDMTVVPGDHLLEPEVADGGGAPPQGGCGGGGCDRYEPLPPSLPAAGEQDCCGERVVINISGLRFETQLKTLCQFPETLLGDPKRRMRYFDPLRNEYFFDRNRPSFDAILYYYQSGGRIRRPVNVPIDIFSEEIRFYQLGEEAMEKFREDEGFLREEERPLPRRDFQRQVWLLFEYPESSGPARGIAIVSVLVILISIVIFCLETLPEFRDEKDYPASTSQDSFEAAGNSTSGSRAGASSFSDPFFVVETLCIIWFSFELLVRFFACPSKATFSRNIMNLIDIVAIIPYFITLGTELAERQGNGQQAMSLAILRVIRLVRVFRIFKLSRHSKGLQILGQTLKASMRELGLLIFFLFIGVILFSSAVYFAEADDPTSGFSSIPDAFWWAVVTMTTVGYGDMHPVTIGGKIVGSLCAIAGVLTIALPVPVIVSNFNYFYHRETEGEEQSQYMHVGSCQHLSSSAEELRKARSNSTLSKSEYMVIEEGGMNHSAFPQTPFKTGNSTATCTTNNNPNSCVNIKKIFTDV

In the test the target is Kv1.3 (Homo sapiens (Human), UniProt P22001). Description: Patch-clamp assay for inhibitory activity on Kv1.3 (whole cell patch-clamp recording). It is filed as cell-based. The settings on record: n≥2 per concentration. How it is done:
Patch-Clamp Assay for Inhibitory Activity on Kv1.3
For a description of a Kv1.3 patch-clamp assay, see Grissmer et al., Mol. Pharmacol. 1994, 45, 1227; whole cell patch-clamp recording was performed with n≥2 individual experiments at each compound concentration using different cells. Three or more different concentrations were determined per dose response curve.
For orientation: In patch-clamp work, channel activity is measured electrically.
`COc1cccc(-c2cc(=O)oc3c(C)c4occ(C)c4cc23)c1` [Example 2, 5-(3-methoxyphenyl)-3,9-dimethyl-7H-furo[3,2-g]chromen-7-one] showed a pIC50 of 5.52 to 5.82.

In turn, `Cc1coc2c(C)c3oc(=O)cc(-c4ccccc4Cl)c3cc12` [Example 3, 5-(2-chlorophenyl)-3,9-dimethyl-7H-furo[3,2-g]chromen-7-one] showed a pIC50 of 5.52 to 5.82. The value for `Cc1coc2c(C)c3oc(=O)cc(-c4cccc(C(F)(F)F)c4)c3cc12` [Example 4, 3,9-dimethyl-5-(3-(trifluoromethyl)phenyl)-7H-furo[3,2-g]chromen-7-one] was 5.52 to 5.82. To `COc1cccc(-c2c(C)c(=O)oc3c(C)c4occ(C)c4cc23)c1` [Example 6, 5-(3-methoxyphenyl)-3,6,9-trimethyl-7H-furo[3,2-g]chromen-7-one] belongs 5.82 to 6.30. To `Cc1coc2c(C)c3oc(=O)cc(-c4ccccc4F)c3cc12` [Example 8, 5-(2-fluorophenyl)-3,9-dimethyl-7H-furo[3,2-g]chromen-7-one] belongs not below 6.30; to `Cc1c(N2CCOCC2)oc2c(C)c3oc(=O)cc(-c4ccccc4)c3cc12` [Example 12, 3,9-dimethyl-2-morpholino-5-phenyl-7H-furo[3,2-g]chromen-7-one], 5.52 to 5.82. The compound `Cc1c(C#N)oc2c(C)c3oc(=O)cc(-c4ccccc4)c3cc12` [Example 13, 3,9-dimethyl-7-oxo-5-phenyl-7H-furo[3,2-g]chromene-2-carbonitrile] showed a pIC50 of 5.52 to 5.82. For the compound `Cc1c(CN2CCOCC2)oc2c(C)c3oc(=O)cc(-c4ccccc4)c3cc12` [Example 14, 3,9-dimethyl-2-(morpholinomethyl)-5-phenyl-7H-furo[3,2-g]chromen-7-one], the pIC50 was 5.52 to 5.82.

In turn, `Cc1c(CN(C)C)oc2c(C)c3oc(=O)cc(-c4ccccc4)c3cc12` [Example 15, 2-((dimethylamino)methyl)-3,9-dimethyl-5-phenyl-7H-furo[3,2-g]chromen-7-one] gave a pIC50 of 5.52 to 5.82.

`Cc1ccccc1-c1cc(=O)oc2cc3occ(C)c3cc12` [Example 17, 3-methyl-5-(o-tolyl)-7H-furo[3,2-g]chromen-7-one] had a pIC50 of 5.82 to 6.30.

Take `Cc1cccc(-c2cc(=O)oc3cc4occ(C)c4cc23)c1` [Example 18, 3-methyl-5-(m-tolyl)-7H-furo[3,2-g]chromen-7-one]: the pIC50 is 5.82 to 6.30. For the compound `COc1ccccc1-c1cc(=O)oc2cc3occ(C)c3cc12` [Example 19, 5-(2-methoxyphenyl)-3-methyl-7H-furo[3,2-g]chromen-7-one], the pIC50 was 5.82 to 6.30. The value for `COc1cccc(-c2cc(=O)oc3cc4occ(C)c4cc23)c1` [Example 20, 5-(3-methoxyphenyl)-3-methyl-7H-furo[3,2-g]chromen-7-one] was 5.82 to 6.30; that for `Cc1coc2cc3oc(=O)cc(-c4ccccc4Cl)c3cc12` [Example 21, 5-(2-chlorophenyl)-3-methyl-7H-furo[3,2-g]chromen-7-one] was 5.82 to 6.30; that for `Cc1coc2cc3oc(=O)cc(-c4cccc(Cl)c4)c3cc12` [Example 22, 5-(3-chlorophenyl)-3-methyl-7H-furo[3,2-g]chromen-7-one] was 5.82 to 6.30.

In turn, `COc1c2occ(C)c2cc2c(-c3ccccc3)cc(=O)oc12` [Example 23, 9-methoxy-3-methyl-5-phenyl-7H-furo[3,2-g]chromen-7-one] had a negative-log IC50 (pIC50) of 5.52 to 5.82. The value for `Cc1coc2nc3oc(=O)cc(-c4ccccc4)c3cc12` [Example 24, 3-methyl-5-phenyl-7H-furo[2,3-b]pyrano[3,2-e]pyridin-7-one] was 5.82 to 6.30; that for `Cc1ccccc1-c1c(Br)c(=O)[nH]c2c(C)c3occ(C)c3cc12` [Example 28, 6-bromo-3,9-dimethyl-5-(o-tolyl)furo[3,2-g]quinolin-7(8H)-one] was 5.82 to 6.30.

Regarding `Cc1ccccc1-c1cc(=O)[nH]c2c(C)c3occ(C)c3cc12` [Example 29, 3,9-dimethyl-5-(o-tolyl)furo[3,2-g]quinolin-7(8H)-one], the pIC50 was 5.52 to 5.82.

`Cc1coc2c(C)c3c(cc12)c(-c1ccccc1)cc(=O)n3C` [Example 32, 3,8,9-trimethyl-5-phenylfuro[3,2-g]quinolin-7(8H)-one] gave a pIC50 of 5.52 to 5.82.

`Cc1coc2c(C)c3c(cc12)c(-c1ccccc1)c(Br)c(=O)n3C` [Example 33, 6-bromo-3,8,9-trimethyl-5-phenylfuro[3,2-g]quinolin-7(8H)-one] showed a pIC50 not below 6.30. In turn, `Cc1c(-c2ccccc2)c2cc3c(C)noc3c(C)c2oc1=O` [Example 35, 3,6,9-trimethyl-5-phenyl-7H-chromeno[6,7-d]isoxazol-7-one] had a pIC50 of 5.82 to 6.30.

Compound `Cc1c(-c2ccccc2)c2cc3c(C)noc3c(C)c2[nH]c1=O` [Example 36, 3,6,9-trimethyl-5-phenylisoxazolo[4,5-g]quinolin-7(8H)-one] showed a pIC50 not below 6.30. As for `Cc1nc2cc3c(-c4ccccc4)cc(=O)oc3c(C)c2o1` [Example 38, 2,4-dimethyl-8-phenyl-6H-chromeno[6,7-d]oxazol-6-one], the pIC50 was 5.82 to 6.30. Consider `CNCc1nc2cc3c(-c4ccccc4)cc(=O)oc3c(C)c2o1` [Example 39, 4-methyl-2-((methylamino)methyl)-8-phenyl-6H-chromeno[6,7-d]oxazol-6-one], for which the pIC50 is 5.52 to 5.82.

Take `Cc1c(-c2ccccc2)c2cc3c(C4CC4)coc3c(C)c2oc1=O` [Example 42, 3-cyclopropyl-6,9-dimethyl-5-phenyl-7H-furo[3,2-g]chromen-7-one]: the pIC50 was 5.82 to 6.30. On to `Cc1coc2c(C)c3oc(=O)cc(-c4cccnc4)c3cc12` [Example 44, 3,9-dimethyl-5-(pyridin-3-yl)-7H-furo[3,2-g]chromen-7-one], for which the pIC50 is 5.52 to 5.82.

Turning to `Cc1c(-c2ccccc2)c2cc3c(C)c(CN(C)C)oc3c(C)c2oc1=O` [Example 46, 2-((dimethylamino)methyl)-3,6,9-trimethyl-5-phenyl-7H-furo[3,2-g]chromen-7-one], the pIC50 is 5.52 to 5.82. To `Cc1c2ocnc2cc2c(-c3ccccc3)cc(=O)oc12` [Example 47, 4-methyl-8-phenyl-6H-chromeno[6,7-d]oxazol-6-one] belongs 5.52 to 5.82; to `Cc1nc2cc3c(-c4ccccc4)c(C)c(=O)oc3c(C)c2o1` [Example 48, 2,4,7-trimethyl-8-phenyl-6H-chromeno [6,7-d]oxazol-6-one], 5.82 to 6.30. To `Cc1noc2c(C)c3oc(=O)cc(-c4ccccc4)c3cc12` [Example 50, 3,9-dimethyl-5-phenyl-7H-chromeno[6,7-d]isoxazol-7-one] belongs 5.52 to 5.82; to `Cc1noc2c(C)c3[nH]c(=O)cc(-c4ccccc4)c3cc12` [Example 51, 3,9-dimethyl-5-phenylisoxazolo[4,5-g]quinolin-7(8H)-one], 5.82 to 6.30; to `Cc1c(-c2ccccc2)c2cc3c(C)noc3c(C)c2n(C)c1=O` [Example 52, 3,6,8,9-tetramethyl-5-phenylisoxazolo[4,5-g]quinolin-7(8H)-one], 5.82 to 6.30. In turn, `Cc1c(-c2cccnc2)c2cc3c(C)noc3c(C)c2n(C)c1=O` [Example 56, 3,6,8,9-tetramethyl-5-(pyridin-3-yl)isoxazolo[4,5-g]quinolin-7(8H)-one] gave a negative-log IC50 (pIC50) of 5.52 to 5.82. Take `Cc1coc2c(C)c3oc(=O)cc(-c4ccccn4)c3cc12` [Example 57, 3,9-dimethyl-5-(pyridin-2-yl)-7H-furo[3,2-g]chromen-7-one]: the pIC50 is 5.52 to 5.82.
